Results: ChEMBL document CHEMBL1127291, “Bioreductive markers for hypoxic cells: 2-nitroimidazoles with biotinylated 1-substituents” (J Med Chem, 1994)
Values belong to the molecule of their own block, whether it stands above or below them.

What was measured:
CaNT [1] = test: Cytometric distribution of cell nuclei from CaNT tumors treated in mice; assay type: functional, cell-based; settings: Mus musculus
CaNT [2] = test: Cytometric distribution of cell nuclei from CaNT tumors treated in mice with breathing air; assay type: functional, cell-based; settings: Mus musculus
CaNT [3] = test: Cytometric distribution of cell nuclei from CaNT tumors treated in mice with breathing carbogen; assay type: functional, cell-based; settings: Mus musculus
CaNT [4] = test: Cytometric distribution of single cells from CaNT tumors treated in mice; assay type: functional, cell-based; settings: Mus musculus
CaNT [5] = test: Cytometric distribution of single cells from CaNT tumors treated in mice with breathing air; assay type: functional, cell-based; settings: Mus musculus
CaNT [6] = test: Cytometric distribution of single cells from CaNT tumors treated in mice with breathing carbogen; assay type: functional, cell-based; settings: Mus musculus
[7] = Half life evaluated in plasma in vitro at 20 degree Centigrade; assay type: ADME, cell-free

Structure (SMILES): O=C1N[C@H]2[C@H](CS[C@H]2CCCCCn2ccnc2[N+](=O)[O-])N1
- Distribution (CaNT [1]): 0.85%
- Distribution (CaNT [2]): 11.7%
- Distribution (CaNT [3]): 0.69%
- Distribution (CaNT [4]): 1.2%
- Distribution (CaNT [5]): 16.5%
- Distribution (CaNT [6]): 3.4%

- half-life [7]: 2 h
Structure (SMILES): O=C(CCCC[C@@H]1SC[C@@H]2NC(=O)N[C@@H]21)NCCNC(=O)Cn1ccnc1[N+](=O)[O-]
